Laboratory results as given in the supplement of paper PMC13207355.
Counter-ions that a name gives are not always drawn.

What was measured:
Conditions in all cases: exposure time: 72 h
E21 [1] = patient-derived glioblastoma stem cells of mesenchymal subtype; test: phenotypic distance (Euclidean, principal components) from DMSO controls (arbitrary units); higher = stronger morphological change
E31 [2] = patient-derived glioblastoma stem cells of proneural subtype; test: as above
E28 [3] = patient-derived glioblastoma stem cells of classical subtype; test: as above
FT3469 [4] = normal neural stem cell line; test: as above
E13 [5] = patient-derived glioblastoma stem cells of classical subtype; test: as above
E34 [6] = patient-derived glioblastoma stem cells of proneural subtype; test: as above
E57 [7] = patient-derived glioblastoma stem cells of mesenchymal subtype; test: as above
E21 [8] = test: surviving fraction (nuclei count normalised to DMSO); higher = more cells surviving (less toxic)
E31 [9] = test: as above
E28 [10] = test: as above
FT3469 [11] = test: as above
E13 [12] = test: as above
E34 [13] = test: as above
E57 [14] = test: as above
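Wherever phenotypic distance (Euclidean, principal components) from DMSO controls is given: cell Painting imaging in 384-well plates, CellProfiler features reduced to at least 20 principal components, Euclidean distance versus same-plate DMSO vehicle wells (0.1% v/v), median over six images per well.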
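Wherever surviving fraction (nuclei count normalised to DMSO) is given: nuclei counted by high-content imaging of Hoechst-stained cells in laminin-coated 384-well plates, relative to 0.1% DMSO vehicle wells, with staurosporine as cell-death control.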

SMILES: CCC1=C[C@@H]2CN(C1)Cc1c([nH]c3ccccc13)[C@@](C(=O)OC)(c1cc3c(cc1OC)N(C)[C@H]1[C@@](O)(C(=O)OC)[C@H](OC(C)=O)[C@]4(CC)C=CCN5CC[C@]31[C@@H]54)C2 [Vinorelbine Tartrate]
- phenotypic distance (E21 [1]; 4.1 nM): 1.06
- phenotypic distance (E21 [1]; 12.3 nM): 1.08
- phenotypic distance (E21 [1]; 37 nM): 1.45
- phenotypic distance (E21 [1]; 111.1 nM): 2.33
- phenotypic distance (E21 [1]; 333.3 nM): 4.36
- phenotypic distance (E21 [1]; 1000 nM): 7
- phenotypic distance (E21 [1]; 3000 nM): 8.49
- phenotypic distance (E31 [2]; 4.1 nM): 0.666
- phenotypic distance (E31 [2]; 12.3 nM): 0.627
- phenotypic distance (E31 [2]; 37 nM): 0.856
- phenotypic distance (E31 [2]; 111.1 nM): 1.44
- phenotypic distance (E31 [2]; 333.3 nM): 3.01
- phenotypic distance (E31 [2]; 1000 nM): 4.58
- phenotypic distance (E31 [2]; 3000 nM): 5.73
- phenotypic distance (E28 [3]; 4.1 nM): 0.584
- phenotypic distance (E28 [3]; 12.3 nM): 0.83
- phenotypic distance (E28 [3]; 37 nM): 0.727
- phenotypic distance (E28 [3]; 111.1 nM): 1.31
- phenotypic distance (E28 [3]; 333.3 nM): 2.18
- phenotypic distance (E28 [3]; 1000 nM): 2.7
- phenotypic distance (E28 [3]; 3000 nM): 3.22
- phenotypic distance (FT3469 [4]; 4.1 nM): 0.854
- phenotypic distance (FT3469 [4]; 12.3 nM): 1.01
- phenotypic distance (FT3469 [4]; 37 nM): 1.01
- phenotypic distance (FT3469 [4]; 111.1 nM): 1.12
- phenotypic distance (FT3469 [4]; 333.3 nM): 2.43
- phenotypic distance (FT3469 [4]; 1000 nM): 4.88
- phenotypic distance (FT3469 [4]; 3000 nM): 3.13
- phenotypic distance (E13 [5]; 4.1 nM): 1.1
- phenotypic distance (E13 [5]; 12.3 nM): 1.18
- phenotypic distance (E13 [5]; 37 nM): 1.26
- phenotypic distance (E13 [5]; 111.1 nM): 1.7
- phenotypic distance (E13 [5]; 333.3 nM): 2.71
- phenotypic distance (E13 [5]; 1000 nM): 4.6
- phenotypic distance (E13 [5]; 3000 nM): 6.33
- phenotypic distance (E34 [6]; 4.1 nM): 0.476
- phenotypic distance (E34 [6]; 12.3 nM): 0.944
- phenotypic distance (E34 [6]; 37 nM): 0.78
- phenotypic distance (E34 [6]; 111.1 nM): 1.01
- phenotypic distance (E34 [6]; 333.3 nM): 1.48
- phenotypic distance (E34 [6]; 1000 nM): 2.84
- phenotypic distance (E34 [6]; 3000 nM): 4.02
- phenotypic distance (E57 [7]; 4.1 nM): 0.512
- phenotypic distance (E57 [7]; 12.3 nM): 0.688
- phenotypic distance (E57 [7]; 37 nM): 0.822
- phenotypic distance (E57 [7]; 111.1 nM): 0.746
- phenotypic distance (E57 [7]; 333.3 nM): 3.9
- phenotypic distance (E57 [7]; 1000 nM): 4.81
- phenotypic distance (E57 [7]; 3000 nM): 6.16
- surviving fraction (E21 [8]; 4.1 nM): 0.868
- surviving fraction (E21 [8]; 12.3 nM): 0.894
- surviving fraction (E21 [8]; 37 nM): 0.926
- surviving fraction (E21 [8]; 111.1 nM): 0.761
- surviving fraction (E21 [8]; 333.3 nM): 0.586
- surviving fraction (E21 [8]; 1000 nM): 0.169
- surviving fraction (E21 [8]; 3000 nM): 0.1
- surviving fraction (E31 [9]; 4.1 nM): 0.794
- surviving fraction (E31 [9]; 12.3 nM): 0.911
- surviving fraction (E31 [9]; 37 nM): 0.749
- surviving fraction (E31 [9]; 111.1 nM): 0.649
- surviving fraction (E31 [9]; 333.3 nM): 0.37
- surviving fraction (E31 [9]; 1000 nM): 0.126
- surviving fraction (E31 [9]; 3000 nM): 0.0917
- surviving fraction (E28 [10]; 4.1 nM): 0.904
- surviving fraction (E28 [10]; 12.3 nM): 0.815
- surviving fraction (E28 [10]; 37 nM): 0.801
- surviving fraction (E28 [10]; 111.1 nM): 0.749
- surviving fraction (E28 [10]; 333.3 nM): 0.609
- surviving fraction (E28 [10]; 1000 nM): 0.375
- surviving fraction (E28 [10]; 3000 nM): 0.353
- surviving fraction (FT3469 [11]; 4.1 nM): 0.953
- surviving fraction (FT3469 [11]; 12.3 nM): 0.829
- surviving fraction (FT3469 [11]; 37 nM): 0.834
- surviving fraction (FT3469 [11]; 111.1 nM): 0.827
- surviving fraction (FT3469 [11]; 333.3 nM): 0.569
- surviving fraction (FT3469 [11]; 1000 nM): 0.553
- surviving fraction (FT3469 [11]; 3000 nM): 0.56
- surviving fraction (E13 [12]; 4.1 nM): 0.863
- surviving fraction (E13 [12]; 12.3 nM): 0.903
- surviving fraction (E13 [12]; 37 nM): 0.916
- surviving fraction (E13 [12]; 111.1 nM): 0.907
- surviving fraction (E13 [12]; 333.3 nM): 0.82
- surviving fraction (E13 [12]; 1000 nM): 0.371
- surviving fraction (E13 [12]; 3000 nM): 0.246
- surviving fraction (E34 [13]; 4.1 nM): 1.05
- surviving fraction (E34 [13]; 12.3 nM): 0.954
- surviving fraction (E34 [13]; 37 nM): 0.856
- surviving fraction (E34 [13]; 111.1 nM): 0.97
- surviving fraction (E34 [13]; 333.3 nM): 0.822
- surviving fraction (E34 [13]; 1000 nM): 0.57
- surviving fraction (E34 [13]; 3000 nM): 0.402
- surviving fraction (E57 [14]; 4.1 nM): 0.969
- surviving fraction (E57 [14]; 12.3 nM): 1.04
- surviving fraction (E57 [14]; 37 nM): 1.04
- surviving fraction (E57 [14]; 111.1 nM): 1.02
- surviving fraction (E57 [14]; 333.3 nM): 0.899
- surviving fraction (E57 [14]; 1000 nM): 0.447
- surviving fraction (E57 [14]; 3000 nM): 0.102

SMILES: CC[C@@H]1C(=O)N(C)c2cnc(Nc3ccc(C(=O)N[C@H]4CC[C@H](N5CCN(CC6CC6)CC5)CC4)cc3OC)nc2N1C(C)C [Volasertib]
- phenotypic distance (E21 [1]; 4.1 nM): 2.95
- phenotypic distance (E21 [1]; 12.3 nM): 3.49
- phenotypic distance (E21 [1]; 37 nM): 3.86
- phenotypic distance (E21 [1]; 111.1 nM): 6.48
- phenotypic distance (E21 [1]; 333.3 nM): 5.25
- phenotypic distance (E21 [1]; 1000 nM): 6.04
- phenotypic distance (E21 [1]; 3000 nM): 7.2
- phenotypic distance (E31 [2]; 4.1 nM): 2.88
- phenotypic distance (E31 [2]; 12.3 nM): 2.73
- phenotypic distance (E31 [2]; 37 nM): 2.37
- phenotypic distance (E31 [2]; 111.1 nM): 3.54
- phenotypic distance (E31 [2]; 333.3 nM): 3.91
- phenotypic distance (E31 [2]; 1000 nM): 4.92
- phenotypic distance (E31 [2]; 3000 nM): 3.6
- phenotypic distance (E28 [3]; 4.1 nM): 1.97
- phenotypic distance (E28 [3]; 12.3 nM): 1.64
- phenotypic distance (E28 [3]; 37 nM): 1.4
- phenotypic distance (E28 [3]; 111.1 nM): 2.98
- phenotypic distance (E28 [3]; 333.3 nM): 2.89
- phenotypic distance (E28 [3]; 1000 nM): 3.11
- phenotypic distance (E28 [3]; 3000 nM): 4.22
- phenotypic distance (FT3469 [4]; 4.1 nM): 2.22
- phenotypic distance (FT3469 [4]; 12.3 nM): 1.25
- phenotypic distance (FT3469 [4]; 37 nM): 1.74
- phenotypic distance (FT3469 [4]; 111.1 nM): 2.57
- phenotypic distance (FT3469 [4]; 333.3 nM): 2.83
- phenotypic distance (FT3469 [4]; 1000 nM): 3.25
- phenotypic distance (FT3469 [4]; 3000 nM): 2.99
- phenotypic distance (E13 [5]; 4.1 nM): 4.53
- phenotypic distance (E13 [5]; 12.3 nM): 4.86
- phenotypic distance (E13 [5]; 37 nM): 5.16
- phenotypic distance (E13 [5]; 111.1 nM): 4.97
- phenotypic distance (E13 [5]; 333.3 nM): 4.79
- phenotypic distance (E13 [5]; 1000 nM): 5.82
- phenotypic distance (E13 [5]; 3000 nM): 5.69
- phenotypic distance (E34 [6]; 4.1 nM): 1.64
- phenotypic distance (E34 [6]; 12.3 nM): 1.44
- phenotypic distance (E34 [6]; 37 nM): 2.23
- phenotypic distance (E34 [6]; 111.1 nM): 2.45
- phenotypic distance (E34 [6]; 333.3 nM): 3.05
- phenotypic distance (E34 [6]; 1000 nM): 4.15
- phenotypic distance (E34 [6]; 3000 nM): 3.53
- phenotypic distance (E57 [7]; 4.1 nM): 2.53
- phenotypic distance (E57 [7]; 12.3 nM): 2.05
- phenotypic distance (E57 [7]; 37 nM): 3.22
- phenotypic distance (E57 [7]; 111.1 nM): 7.13
- phenotypic distance (E57 [7]; 333.3 nM): 6.28
- phenotypic distance (E57 [7]; 1000 nM): 6.68
- phenotypic distance (E57 [7]; 3000 nM): 8.42
- surviving fraction (E21 [8]; 4.1 nM): 0.459
- surviving fraction (E21 [8]; 12.3 nM): 0.447
- surviving fraction (E21 [8]; 37 nM): 0.372
- surviving fraction (E21 [8]; 111.1 nM): 0.289
- surviving fraction (E21 [8]; 333.3 nM): 0.207
- surviving fraction (E21 [8]; 1000 nM): 0.205
- surviving fraction (E21 [8]; 3000 nM): 0.274
- surviving fraction (E31 [9]; 4.1 nM): 0.275
- surviving fraction (E31 [9]; 12.3 nM): 0.237
- surviving fraction (E31 [9]; 37 nM): 0.251
- surviving fraction (E31 [9]; 111.1 nM): 0.163
- surviving fraction (E31 [9]; 333.3 nM): 0.161
- surviving fraction (E31 [9]; 1000 nM): 0.148
- surviving fraction (E31 [9]; 3000 nM): 0.178
- surviving fraction (E28 [10]; 4.1 nM): 0.613
- surviving fraction (E28 [10]; 12.3 nM): 0.688
- surviving fraction (E28 [10]; 37 nM): 0.648
- surviving fraction (E28 [10]; 111.1 nM): 0.439
- surviving fraction (E28 [10]; 333.3 nM): 0.459
- surviving fraction (E28 [10]; 1000 nM): 0.386
- surviving fraction (E28 [10]; 3000 nM): 0.39
- surviving fraction (FT3469 [11]; 4.1 nM): 0.874
- surviving fraction (FT3469 [11]; 12.3 nM): 0.885
- surviving fraction (FT3469 [11]; 37 nM): 0.808
- surviving fraction (FT3469 [11]; 111.1 nM): 0.646
- surviving fraction (FT3469 [11]; 333.3 nM): 0.588
- surviving fraction (FT3469 [11]; 1000 nM): 0.506
- surviving fraction (FT3469 [11]; 3000 nM): 0.544
- surviving fraction (E13 [12]; 4.1 nM): 0.449
- surviving fraction (E13 [12]; 12.3 nM): 0.418
- surviving fraction (E13 [12]; 37 nM): 0.387
- surviving fraction (E13 [12]; 111.1 nM): 0.387
- surviving fraction (E13 [12]; 333.3 nM): 0.348
- surviving fraction (E13 [12]; 1000 nM): 0.301
- surviving fraction (E13 [12]; 3000 nM): 0.322
- surviving fraction (E34 [13]; 4.1 nM): 0.769
- surviving fraction (E34 [13]; 12.3 nM): 0.695
- surviving fraction (E34 [13]; 37 nM): 0.644
- surviving fraction (E34 [13]; 111.1 nM): 0.624
- surviving fraction (E34 [13]; 333.3 nM): 0.503
- surviving fraction (E34 [13]; 1000 nM): 0.414
- surviving fraction (E34 [13]; 3000 nM): 0.501
- surviving fraction (E57 [14]; 4.1 nM): 0.623
- surviving fraction (E57 [14]; 12.3 nM): 0.679
- surviving fraction (E57 [14]; 37 nM): 0.463
- surviving fraction (E57 [14]; 111.1 nM): 0.205
- surviving fraction (E57 [14]; 333.3 nM): 0.123
- surviving fraction (E57 [14]; 1000 nM): 0.12
- surviving fraction (E57 [14]; 3000 nM): 0.141
